≈ marks a conversion by molar mass, not a printed value.
Key:
Escherichia coli [1] = assay: In vitro antibacterial activity against isolated Escherichia coli DC2; format: functional
Moraxella catarrhalis = assay: In vitro antibacterial activity against isolated Moraxella catarrhalis RA21; format: functional
Peptide deformylase = molecular target: T1, Peptide deformylase (Escherichia coli, UniProt Q9JN24); assay: Inhibitory activity against isolated Escherichia coli peptidyl deformylase (PDF) enzyme containing iron.
T1 sequence (Q9JN24 whole entry): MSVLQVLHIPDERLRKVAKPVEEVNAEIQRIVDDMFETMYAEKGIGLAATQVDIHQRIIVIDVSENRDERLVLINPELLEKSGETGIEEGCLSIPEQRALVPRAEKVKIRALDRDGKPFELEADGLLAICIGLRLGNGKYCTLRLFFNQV

[2] = molecular target: T2, Endothelin-converting enzyme 1 (Homo sapiens, UniProt P42892); assay: Inhibitory activity against Endothelin-converting enzyme 1
T2 sequence (P42892 whole entry): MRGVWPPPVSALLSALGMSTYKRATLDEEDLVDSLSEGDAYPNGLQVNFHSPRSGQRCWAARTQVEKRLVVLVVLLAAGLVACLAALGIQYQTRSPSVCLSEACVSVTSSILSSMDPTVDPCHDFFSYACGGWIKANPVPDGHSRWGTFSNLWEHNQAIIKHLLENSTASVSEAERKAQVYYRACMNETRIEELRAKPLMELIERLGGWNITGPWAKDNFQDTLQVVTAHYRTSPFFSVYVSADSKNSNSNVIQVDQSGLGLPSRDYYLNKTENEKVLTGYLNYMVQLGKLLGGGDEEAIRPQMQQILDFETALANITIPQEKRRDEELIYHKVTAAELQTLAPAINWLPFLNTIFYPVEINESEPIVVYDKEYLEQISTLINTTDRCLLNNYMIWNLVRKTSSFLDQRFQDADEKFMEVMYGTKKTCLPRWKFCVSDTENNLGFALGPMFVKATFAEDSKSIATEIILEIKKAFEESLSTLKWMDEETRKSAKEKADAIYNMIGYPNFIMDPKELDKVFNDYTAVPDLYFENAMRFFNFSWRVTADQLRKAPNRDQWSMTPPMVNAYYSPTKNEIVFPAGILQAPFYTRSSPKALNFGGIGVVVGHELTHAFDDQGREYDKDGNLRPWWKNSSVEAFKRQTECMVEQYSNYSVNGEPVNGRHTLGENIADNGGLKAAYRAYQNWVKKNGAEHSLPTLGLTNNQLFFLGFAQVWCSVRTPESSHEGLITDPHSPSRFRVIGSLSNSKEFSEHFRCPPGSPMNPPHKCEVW

Matrilysin = Matrilysin (Homo sapiens, UniProt P09237); assay: Inhibition of matrilysin, Matrix metalloprotease-7
Collagenase 3 = Collagenase 3 (Homo sapiens, UniProt P45452); assay: Inhibition of Matrix metalloprotease-13
Interstitial collagenase = molecular target: T3, Interstitial collagenase (Homo sapiens, UniProt P03956); assay: Inhibition of Matrix metalloprotease-1
T3 sequence (P03956 whole entry): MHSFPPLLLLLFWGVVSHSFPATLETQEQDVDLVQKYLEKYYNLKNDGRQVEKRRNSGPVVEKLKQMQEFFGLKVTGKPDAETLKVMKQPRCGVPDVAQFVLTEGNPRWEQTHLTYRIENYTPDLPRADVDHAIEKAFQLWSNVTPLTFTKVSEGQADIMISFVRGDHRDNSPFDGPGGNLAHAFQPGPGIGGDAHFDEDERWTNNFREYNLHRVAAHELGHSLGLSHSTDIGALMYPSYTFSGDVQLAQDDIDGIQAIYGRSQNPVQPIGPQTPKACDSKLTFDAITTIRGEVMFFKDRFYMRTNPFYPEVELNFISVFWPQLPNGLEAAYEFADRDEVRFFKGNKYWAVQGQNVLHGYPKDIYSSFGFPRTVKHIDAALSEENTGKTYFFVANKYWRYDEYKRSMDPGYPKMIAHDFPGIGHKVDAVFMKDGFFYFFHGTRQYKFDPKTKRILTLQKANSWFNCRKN

[3] = molecular target: Macrophage metalloelastase (Homo sapiens, UniProt P39900); assay: Inhibition of human Matrix metalloprotease-12
Neprilysin [4] = molecular target: T4, Neprilysin (Rattus norvegicus, UniProt P07861); assay: Inhibitory activity against neutral endopeptidase enzyme (NEP).
T4 sequence (P07861 whole entry): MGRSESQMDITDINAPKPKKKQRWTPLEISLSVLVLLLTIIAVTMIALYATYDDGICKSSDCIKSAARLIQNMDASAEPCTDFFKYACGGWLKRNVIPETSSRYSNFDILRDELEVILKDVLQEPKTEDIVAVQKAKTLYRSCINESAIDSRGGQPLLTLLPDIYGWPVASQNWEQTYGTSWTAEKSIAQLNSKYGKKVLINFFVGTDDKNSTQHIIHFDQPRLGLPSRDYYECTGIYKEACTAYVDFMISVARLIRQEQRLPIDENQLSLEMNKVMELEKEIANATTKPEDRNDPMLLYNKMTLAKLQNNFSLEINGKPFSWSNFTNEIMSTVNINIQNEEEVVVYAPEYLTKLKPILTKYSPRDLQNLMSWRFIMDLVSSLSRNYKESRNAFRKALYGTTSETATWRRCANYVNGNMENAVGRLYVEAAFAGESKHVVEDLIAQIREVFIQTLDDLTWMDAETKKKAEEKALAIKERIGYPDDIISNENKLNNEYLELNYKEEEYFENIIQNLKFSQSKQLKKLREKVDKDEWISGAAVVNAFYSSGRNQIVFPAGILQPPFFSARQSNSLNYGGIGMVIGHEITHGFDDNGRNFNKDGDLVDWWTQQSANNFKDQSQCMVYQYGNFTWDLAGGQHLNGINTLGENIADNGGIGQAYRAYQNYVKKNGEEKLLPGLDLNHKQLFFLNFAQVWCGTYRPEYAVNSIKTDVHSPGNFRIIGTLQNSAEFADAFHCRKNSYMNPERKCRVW

[5] = molecular target: Angiotensin-converting enzyme (Homo sapiens, UniProt P12821)
Neprilysin [6] = molecular target: T4, Neprilysin; assay: Inhibitory activity against endopeptidase enzyme (NEP).
Bacillus subtilis = assay: In vitro antibacterial activity against Bacillus subtilis ATCC 585969.; format: functional
Chlamydia pneumoniae = assay: In vitro antibacterial activity against Chlamydia pneumoniae AR-39.; format: functional
Escherichia coli [7] = assay: In vitro antibacterial activity against Escherichia coli ATCC 25922.; format: functional
Enterococcus faecalis = assay: In vitro antibacterial activity against Enterococcus faecalis ATCC 29212.; format: functional
Enterococcus faecium = assay: In vitro antibacterial activity against Enterococcus faecium vanA E25_1.; format: functional
Haemophilus influenzae = assay: In vitro antibacterial activity against Haemophilus influenzae 11.; format: functional
[8] = test system: Mycoplasmoides pneumoniae; assay: In vitro antibacterial activity against Mycoplasma pneumoniae ATCC 29342.; format: functional
Pseudomonas aeruginosa = assay: In vitro antibacterial activity against Pseudomonas aeruginosa ATCC 27853.; format: functional
Staphylococcus aureus = assay: In vitro antibacterial activity against Staphylococcus aureus ATCC 25923.; format: functional
Streptococcus pneumoniae [9] = assay: In vitro antibacterial activity against Streptococcus pneumoniae ATCC 49619.; format: functional
[10] = test system: Stenotrophomonas maltophilia; assay: In vitro antibacterial activity against Stenotrophomonas maltophilia 1AC739.; format: functional
Streptococcus pneumoniae [11] = assay: In vitro antibacterial activity against Streptococcus pneumoniae 1/1 (penicillin resistant).; format: functional

Angiotensin-converting enzyme, sequence (P12821 whole entry): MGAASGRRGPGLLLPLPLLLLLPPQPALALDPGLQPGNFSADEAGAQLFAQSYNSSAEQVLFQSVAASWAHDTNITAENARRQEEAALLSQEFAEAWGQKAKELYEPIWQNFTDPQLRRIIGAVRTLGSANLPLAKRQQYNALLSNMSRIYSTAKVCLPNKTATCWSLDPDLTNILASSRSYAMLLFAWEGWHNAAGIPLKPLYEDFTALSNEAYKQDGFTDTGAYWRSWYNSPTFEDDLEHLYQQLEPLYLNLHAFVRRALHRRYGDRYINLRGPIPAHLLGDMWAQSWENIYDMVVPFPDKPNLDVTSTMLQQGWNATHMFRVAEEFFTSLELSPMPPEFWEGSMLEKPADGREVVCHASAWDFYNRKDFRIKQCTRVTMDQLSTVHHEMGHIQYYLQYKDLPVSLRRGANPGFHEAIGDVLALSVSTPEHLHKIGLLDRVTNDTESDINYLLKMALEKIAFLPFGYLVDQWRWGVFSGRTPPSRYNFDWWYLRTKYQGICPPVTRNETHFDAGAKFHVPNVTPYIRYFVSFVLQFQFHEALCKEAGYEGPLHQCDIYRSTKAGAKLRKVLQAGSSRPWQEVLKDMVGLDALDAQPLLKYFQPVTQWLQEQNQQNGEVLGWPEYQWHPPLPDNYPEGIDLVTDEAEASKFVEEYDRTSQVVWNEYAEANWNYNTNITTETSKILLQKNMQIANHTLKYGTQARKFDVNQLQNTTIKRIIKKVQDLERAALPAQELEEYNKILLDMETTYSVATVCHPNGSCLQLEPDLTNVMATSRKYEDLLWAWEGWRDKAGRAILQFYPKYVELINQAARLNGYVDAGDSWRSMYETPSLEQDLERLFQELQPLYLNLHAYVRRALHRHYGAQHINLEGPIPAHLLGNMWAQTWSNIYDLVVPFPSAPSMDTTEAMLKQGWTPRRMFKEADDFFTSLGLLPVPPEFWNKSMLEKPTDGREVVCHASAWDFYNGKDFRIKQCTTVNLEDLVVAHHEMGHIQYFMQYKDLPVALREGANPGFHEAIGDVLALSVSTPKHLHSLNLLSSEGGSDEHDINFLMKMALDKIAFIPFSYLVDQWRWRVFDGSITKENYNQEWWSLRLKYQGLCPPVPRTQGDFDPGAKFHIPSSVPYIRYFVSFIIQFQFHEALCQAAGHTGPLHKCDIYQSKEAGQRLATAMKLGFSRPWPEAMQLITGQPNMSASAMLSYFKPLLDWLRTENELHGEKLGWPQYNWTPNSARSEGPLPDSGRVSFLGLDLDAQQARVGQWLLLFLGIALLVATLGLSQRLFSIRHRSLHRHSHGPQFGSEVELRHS
Matrilysin, sequence (P09237 whole entry): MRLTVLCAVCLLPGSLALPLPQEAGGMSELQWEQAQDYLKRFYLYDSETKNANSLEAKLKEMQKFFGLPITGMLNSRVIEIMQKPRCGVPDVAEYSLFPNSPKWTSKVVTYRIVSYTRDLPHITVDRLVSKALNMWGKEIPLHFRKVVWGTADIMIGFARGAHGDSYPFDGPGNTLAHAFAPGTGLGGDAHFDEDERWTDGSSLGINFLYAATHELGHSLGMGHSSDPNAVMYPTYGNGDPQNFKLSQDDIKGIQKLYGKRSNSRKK
Macrophage metalloelastase, sequence (P39900 whole entry): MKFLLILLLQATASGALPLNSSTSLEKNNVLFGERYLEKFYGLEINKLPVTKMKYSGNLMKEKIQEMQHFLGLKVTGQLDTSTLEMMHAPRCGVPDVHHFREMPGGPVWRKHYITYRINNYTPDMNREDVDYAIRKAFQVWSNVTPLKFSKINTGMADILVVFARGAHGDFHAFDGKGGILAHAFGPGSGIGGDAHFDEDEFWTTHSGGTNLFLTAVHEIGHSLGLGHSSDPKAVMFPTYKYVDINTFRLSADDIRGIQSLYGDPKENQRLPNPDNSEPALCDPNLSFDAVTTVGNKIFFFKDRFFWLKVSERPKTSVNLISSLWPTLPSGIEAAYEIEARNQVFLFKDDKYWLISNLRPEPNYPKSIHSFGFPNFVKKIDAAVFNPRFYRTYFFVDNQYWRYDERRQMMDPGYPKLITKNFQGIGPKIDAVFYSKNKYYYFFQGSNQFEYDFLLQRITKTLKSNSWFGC

Row | Structure (SMILES) | MIC (Escherichia coli [1]) [mg/L] | MIC (Moraxella catarrhalis) [mg/L] | IC50 (Peptide deformylase) [µM] | also measured
1 | CCCC(CC(=O)NO)S(=O)(=O)c1ccccc1 (stereo not given) | 64 (≈ 236 µM) | 4 (≈ 14.7 µM) | 0.16 | 
2 | CCCCC(CC(=O)NO)S(=O)(=O)C1CCCCC1 (stereo not given) | 8 (≈ 27.5 µM) | < 0.25 |  | IC50 [2]: 78 µM; IC50 (Matrilysin): 0.29 µM; IC50 (Collagenase 3): 0.1 µM; IC50 (Interstitial collagenase): 0.054 µM; IC50 [3]: 0.014 µM; IC50 (Neprilysin [4]): 1.65 µM; IC50 [5]: > 100 µM
3 | CCCCC(CC(=O)NO)[S+]([O-])c1ccc2ccccc2c1 (stereo not given) | 2 (≈ 6.26 µM) | < 0.25 | 0.064 | 
4 | CCCCC(CC(=O)NO)[S+]([O-])c1cccc(OC)c1 (stereo not given) | 4 (≈ 13.4 µM) | 0.25 (≈ 0.835 µM) | 0.094 | 
5 | CCCCC(CC(=O)NO)[S+]([O-])c1ccc(OC)cc1 (stereo not given) | 2 (≈ 6.68 µM) | < 0.25 | 0.099 | 
6 | CCC(CC(=O)NO)S(=O)(=O)c1ccccc1 (stereo not given) | > 64 | > 64 |  | 
7 | CCCCC(CC(=O)NO)S(=O)(=O)c1ccc2ccccc2c1 (stereo not given) | 8 (≈ 23.9 µM) | 0.5 (≈ 1.49 µM) | 0.023 | IC50 [2]: 450 µM; IC50 (Matrilysin): 1.5 µM; IC50 (Collagenase 3): 0.009 µM; IC50 (Interstitial collagenase): 0.07 µM; IC50 [3]: 0.013 µM; IC50 (Neprilysin [6]): 0.5 µM; IC50 [5]: 12.4 µM
8 | CCCCC(CC(=O)NO)S(=O)(=O)c1ccc(NC(C)=O)cc1 (stereo not given) | 16 (≈ 46.7 µM) | 1 (≈ 2.92 µM) | 0.011 | 
9 | O=C(CC(c1ccccc1)S(=O)(=O)c1ccccc1)NO (stereo not given) | 32 (≈ 105 µM) | 8 (≈ 26.2 µM) | 0.16 | 
10 | O=C(CC(c1ccc2c(c1)OCO2)S(=O)(=O)c1ccccc1)NO (stereo not given) | 16 (≈ 45.8 µM) | 1 (≈ 2.86 µM) |  | 
11 | CCCCC(CC(=O)NO)S(=O)(=O)Cc1ccccc1 (stereo not given) | 128 (≈ 428 µM) | 16 (≈ 53.4 µM) | 0.19 | 
12 | O=C(CC(c1ccco1)S(=O)(=O)c1ccccc1)NO (stereo not given) | 32 (≈ 108 µM) | 4 (≈ 13.5 µM) |  | 
13 | CCCCC[C@H](CC(=O)NO)C(=O)N[C@H](C(=O)N1CCC[C@H]1CO)C(C)C [ACTINONIN] | 1 (≈ 2.59 µM) | < 0.06 |  | MIC (Bacillus subtilis): 8 mg/L (≈ 20.8 µM); MIC (Chlamydia pneumoniae): 4 mg/L (≈ 10.4 µM); MIC (Escherichia coli [7]): 64 mg/L (≈ 166 µM); MIC (Enterococcus faecalis): > 128 mg/L; MIC (Enterococcus faecium): > 128 mg/L; MIC (Haemophilus influenzae): 2 mg/L (≈ 5.19 µM); MIC [8]: > 64 mg/L; MIC (Pseudomonas aeruginosa): > 128 mg/L; MIC (Staphylococcus aureus): 32 mg/L (≈ 83 µM); MIC (Streptococcus pneumoniae [9]): 32 mg/L (≈ 83 µM); MIC [10]: 16 mg/L (≈ 41.5 µM); MIC (Streptococcus pneumoniae [11]): 128 mg/L (≈ 332 µM)

Source: ChEMBL document CHEMBL1133694, “Hydroxamic acid derivatives as potent peptide deformylase inhibitors and antibacterial agents” (J Med Chem, 2000)
